Consider 7 compounds from ChEMBL document CHEMBL5465560, “Selectivity Literature for EUbOPEN Chemogenomic Library” (2024).

The target of assay [1] is T1, Dual specificity mitogen-activated protein kinase kinase 4 (Homo sapiens) (UniProt P45985).
T1 sequence (whole entry): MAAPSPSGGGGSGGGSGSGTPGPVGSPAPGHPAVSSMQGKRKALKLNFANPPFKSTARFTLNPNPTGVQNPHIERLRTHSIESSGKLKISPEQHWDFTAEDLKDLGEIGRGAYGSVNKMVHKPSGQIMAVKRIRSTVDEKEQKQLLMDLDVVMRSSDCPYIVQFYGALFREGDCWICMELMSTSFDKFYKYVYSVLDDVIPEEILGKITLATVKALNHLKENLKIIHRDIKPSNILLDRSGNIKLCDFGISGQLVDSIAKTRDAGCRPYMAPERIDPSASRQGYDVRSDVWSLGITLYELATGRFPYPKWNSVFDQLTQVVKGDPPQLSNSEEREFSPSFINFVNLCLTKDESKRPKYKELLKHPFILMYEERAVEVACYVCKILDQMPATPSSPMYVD
Nature of the assay: Selectivity interaction (Upstate Kinase Profiler service (Millipore)) EUB0000056c MAP2K4. Conditions: at 1 µM.

For assay [2], the target named is Serine/threonine-protein kinase PAK 6 (Homo sapiens) (UniProt Q9NQU5). Nature of the assay: Selectivity interaction (Upstate Kinase Profiler service (Millipore)) EUB0000056c PAK6. Conditions: at 1 µM.
The test system of assay [3] is T2, Receptor-type tyrosine-protein kinase FLT3 (Homo sapiens), P36888 [D835Y].
T2 sequence (whole entry): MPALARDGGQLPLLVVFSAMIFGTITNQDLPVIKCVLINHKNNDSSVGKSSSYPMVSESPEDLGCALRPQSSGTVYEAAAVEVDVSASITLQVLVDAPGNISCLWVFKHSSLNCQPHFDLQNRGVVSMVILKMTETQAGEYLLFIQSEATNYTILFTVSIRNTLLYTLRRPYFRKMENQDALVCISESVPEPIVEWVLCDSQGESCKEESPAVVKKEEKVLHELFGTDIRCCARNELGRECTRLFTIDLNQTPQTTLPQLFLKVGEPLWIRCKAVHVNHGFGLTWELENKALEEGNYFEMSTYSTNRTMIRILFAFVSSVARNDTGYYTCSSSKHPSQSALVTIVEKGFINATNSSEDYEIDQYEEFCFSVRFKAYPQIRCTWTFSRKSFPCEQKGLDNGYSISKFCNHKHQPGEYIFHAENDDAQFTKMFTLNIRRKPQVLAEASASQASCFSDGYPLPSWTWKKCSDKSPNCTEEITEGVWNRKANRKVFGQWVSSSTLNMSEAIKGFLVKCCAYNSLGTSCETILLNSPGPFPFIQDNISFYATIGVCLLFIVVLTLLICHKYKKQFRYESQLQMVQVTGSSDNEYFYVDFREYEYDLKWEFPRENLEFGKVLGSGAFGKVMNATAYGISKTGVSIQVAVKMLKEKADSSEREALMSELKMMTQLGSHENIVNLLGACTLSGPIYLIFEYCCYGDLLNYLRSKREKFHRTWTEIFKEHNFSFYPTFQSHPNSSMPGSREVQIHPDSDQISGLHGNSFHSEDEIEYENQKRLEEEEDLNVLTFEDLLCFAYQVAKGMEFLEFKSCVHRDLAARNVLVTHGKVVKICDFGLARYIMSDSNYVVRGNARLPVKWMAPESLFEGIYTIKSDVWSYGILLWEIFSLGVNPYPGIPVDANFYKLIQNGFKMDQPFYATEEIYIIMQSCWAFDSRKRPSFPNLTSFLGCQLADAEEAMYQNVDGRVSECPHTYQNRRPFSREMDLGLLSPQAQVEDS
The assay is described as follows: (§1) Selectivity interaction (ProQinase) EUB0000171b FLT3.

Assay [4] addresses Receptor-type tyrosine-protein kinase FLT3 (Homo sapiens) (UniProt P36888). Described as §1.
Assay [5] addresses Ribosomal protein S6 kinase alpha-1 (Homo sapiens, UniProt Q15418). The assay is described as follows: Selectivity interaction (KinomeScan (DiscoverX)) EUB0000695a RPS6KA1. Conditions: at 100 nM.
Assay [6] concerns the target Dual specificity protein kinase CLK2 (Homo sapiens, UniProt P49760). The assay is described as follows: Selectivity interaction (KinomeScan (DiscoverX)) EUB0000045b CLK2.
Assay [7] addresses Receptor-interacting serine/threonine-protein kinase 2 (Homo sapiens, UniProt O43353). The assay is described as follows: Selectivity interaction (KinomeScan (DiscoverX)) EUB0000607a RIPK2. Conditions: at 10 µM.
Assay [8] has as its target T3, Phosphatidylinositol 4,5-bisphosphate 3-kinase catalytic subunit delta isoform (Homo sapiens) (UniProt O00329).
T3 sequence (whole entry): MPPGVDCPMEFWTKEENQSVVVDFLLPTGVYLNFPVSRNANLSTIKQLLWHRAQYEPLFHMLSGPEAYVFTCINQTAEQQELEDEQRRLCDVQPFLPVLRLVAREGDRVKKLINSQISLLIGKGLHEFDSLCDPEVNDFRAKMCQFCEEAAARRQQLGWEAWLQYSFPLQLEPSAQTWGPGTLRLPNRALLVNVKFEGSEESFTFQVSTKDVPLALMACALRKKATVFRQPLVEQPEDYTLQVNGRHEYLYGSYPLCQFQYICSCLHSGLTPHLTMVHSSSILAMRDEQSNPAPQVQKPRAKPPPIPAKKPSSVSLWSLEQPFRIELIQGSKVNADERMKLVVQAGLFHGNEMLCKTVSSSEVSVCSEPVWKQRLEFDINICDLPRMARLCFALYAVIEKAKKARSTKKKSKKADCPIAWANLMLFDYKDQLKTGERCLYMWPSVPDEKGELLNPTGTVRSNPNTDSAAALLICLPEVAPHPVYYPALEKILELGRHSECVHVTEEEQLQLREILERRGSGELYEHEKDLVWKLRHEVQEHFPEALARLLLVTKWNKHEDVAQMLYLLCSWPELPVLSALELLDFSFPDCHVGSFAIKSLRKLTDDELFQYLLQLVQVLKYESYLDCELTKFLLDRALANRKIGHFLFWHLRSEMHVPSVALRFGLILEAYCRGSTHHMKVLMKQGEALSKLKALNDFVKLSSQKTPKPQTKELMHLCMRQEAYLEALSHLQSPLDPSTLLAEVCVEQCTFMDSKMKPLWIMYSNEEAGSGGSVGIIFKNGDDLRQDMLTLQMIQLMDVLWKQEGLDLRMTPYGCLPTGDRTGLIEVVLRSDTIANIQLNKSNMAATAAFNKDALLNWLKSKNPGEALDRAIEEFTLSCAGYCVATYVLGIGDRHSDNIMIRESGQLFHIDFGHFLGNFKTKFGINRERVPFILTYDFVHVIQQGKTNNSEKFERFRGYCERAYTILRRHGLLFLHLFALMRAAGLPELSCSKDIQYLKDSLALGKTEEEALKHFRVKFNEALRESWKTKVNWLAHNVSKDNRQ
Nature of the assay: Selectivity interaction (ActivX KiNativ screen (kinase selectivity in THP-1 cell lysates)) EUB0000639a PIK3CD. In kind it is subcellular. Conditions: lysate.

The next assay concerns the target Insulin receptor (Homo sapiens, UniProt P06213). The assay is described as follows: Selectivity interaction (KinomeScan (DiscoverX)) EUB0001619a INSR. Conditions: at 1 µM.

Sequence of Dual specificity protein kinase CLK2 (P49760 whole entry, looked up): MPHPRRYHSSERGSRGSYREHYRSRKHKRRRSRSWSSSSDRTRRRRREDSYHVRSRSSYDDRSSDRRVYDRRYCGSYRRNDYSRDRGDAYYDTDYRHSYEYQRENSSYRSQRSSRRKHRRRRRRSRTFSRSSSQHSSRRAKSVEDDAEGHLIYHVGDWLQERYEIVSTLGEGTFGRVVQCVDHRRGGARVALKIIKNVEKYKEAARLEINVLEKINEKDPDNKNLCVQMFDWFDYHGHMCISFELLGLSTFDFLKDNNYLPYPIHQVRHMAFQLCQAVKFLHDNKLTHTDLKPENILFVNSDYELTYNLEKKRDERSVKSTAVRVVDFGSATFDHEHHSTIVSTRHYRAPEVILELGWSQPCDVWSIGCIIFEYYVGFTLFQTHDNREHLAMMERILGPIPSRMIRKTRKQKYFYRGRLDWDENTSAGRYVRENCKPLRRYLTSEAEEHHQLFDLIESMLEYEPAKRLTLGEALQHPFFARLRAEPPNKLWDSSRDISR
Sequence of Ribosomal protein S6 kinase alpha-1 (Q15418 whole entry): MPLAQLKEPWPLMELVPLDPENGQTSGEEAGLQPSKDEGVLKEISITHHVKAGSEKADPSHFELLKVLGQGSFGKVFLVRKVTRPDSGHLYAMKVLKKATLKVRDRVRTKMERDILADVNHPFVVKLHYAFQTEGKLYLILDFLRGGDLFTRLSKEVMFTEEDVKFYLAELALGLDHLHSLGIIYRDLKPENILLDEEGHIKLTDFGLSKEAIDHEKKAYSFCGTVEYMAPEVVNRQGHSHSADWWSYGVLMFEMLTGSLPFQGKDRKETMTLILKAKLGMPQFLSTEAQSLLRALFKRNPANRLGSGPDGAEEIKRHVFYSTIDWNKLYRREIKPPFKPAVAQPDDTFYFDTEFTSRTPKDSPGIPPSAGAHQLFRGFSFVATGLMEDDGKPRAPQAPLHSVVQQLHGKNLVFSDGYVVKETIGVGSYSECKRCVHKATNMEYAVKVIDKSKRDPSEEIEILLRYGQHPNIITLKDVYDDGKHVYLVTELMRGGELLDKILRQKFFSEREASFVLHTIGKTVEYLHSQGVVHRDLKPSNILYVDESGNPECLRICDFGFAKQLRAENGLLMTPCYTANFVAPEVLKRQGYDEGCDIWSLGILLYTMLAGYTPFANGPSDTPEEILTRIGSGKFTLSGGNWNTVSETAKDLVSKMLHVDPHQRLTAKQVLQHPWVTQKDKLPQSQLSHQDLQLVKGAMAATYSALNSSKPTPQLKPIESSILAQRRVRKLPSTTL
Sequence of Receptor-interacting serine/threonine-protein kinase 2 (O43353 whole entry, canonical isoform): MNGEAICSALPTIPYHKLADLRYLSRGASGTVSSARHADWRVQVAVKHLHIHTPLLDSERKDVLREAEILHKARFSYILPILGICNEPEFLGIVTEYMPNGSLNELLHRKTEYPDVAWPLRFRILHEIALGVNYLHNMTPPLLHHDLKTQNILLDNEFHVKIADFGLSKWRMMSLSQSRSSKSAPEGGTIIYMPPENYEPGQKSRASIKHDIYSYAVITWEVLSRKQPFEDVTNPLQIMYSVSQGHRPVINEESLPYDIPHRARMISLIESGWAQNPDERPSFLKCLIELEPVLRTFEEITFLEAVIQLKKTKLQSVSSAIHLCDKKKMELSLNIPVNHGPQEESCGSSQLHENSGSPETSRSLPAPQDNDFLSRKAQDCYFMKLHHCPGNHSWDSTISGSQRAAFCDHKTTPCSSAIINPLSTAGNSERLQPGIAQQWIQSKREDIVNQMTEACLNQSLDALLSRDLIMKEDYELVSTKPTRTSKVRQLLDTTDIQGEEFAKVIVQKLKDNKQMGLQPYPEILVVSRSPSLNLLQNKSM
Sequence of Serine/threonine-protein kinase PAK 6 (Homo sapiens) (Q9NQU5 whole entry, looked up): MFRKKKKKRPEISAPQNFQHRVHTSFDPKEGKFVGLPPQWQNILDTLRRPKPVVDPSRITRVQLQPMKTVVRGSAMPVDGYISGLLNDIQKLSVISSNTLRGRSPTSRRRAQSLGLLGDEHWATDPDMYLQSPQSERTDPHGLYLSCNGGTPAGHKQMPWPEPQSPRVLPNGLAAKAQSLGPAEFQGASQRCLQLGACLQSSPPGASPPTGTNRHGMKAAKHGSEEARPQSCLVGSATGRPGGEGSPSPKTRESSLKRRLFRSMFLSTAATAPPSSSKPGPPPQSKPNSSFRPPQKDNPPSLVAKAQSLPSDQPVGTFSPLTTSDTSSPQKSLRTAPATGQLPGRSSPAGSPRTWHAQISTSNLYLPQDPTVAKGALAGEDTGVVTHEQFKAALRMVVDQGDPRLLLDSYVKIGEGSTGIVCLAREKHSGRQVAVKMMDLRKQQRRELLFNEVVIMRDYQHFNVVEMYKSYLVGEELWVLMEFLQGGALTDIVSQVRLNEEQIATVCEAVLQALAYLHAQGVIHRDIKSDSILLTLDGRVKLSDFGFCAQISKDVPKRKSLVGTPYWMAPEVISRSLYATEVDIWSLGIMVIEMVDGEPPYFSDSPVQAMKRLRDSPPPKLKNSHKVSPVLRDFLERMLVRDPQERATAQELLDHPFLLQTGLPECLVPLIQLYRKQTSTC
Sequence of Insulin receptor (P06213 28-758 limits assumed): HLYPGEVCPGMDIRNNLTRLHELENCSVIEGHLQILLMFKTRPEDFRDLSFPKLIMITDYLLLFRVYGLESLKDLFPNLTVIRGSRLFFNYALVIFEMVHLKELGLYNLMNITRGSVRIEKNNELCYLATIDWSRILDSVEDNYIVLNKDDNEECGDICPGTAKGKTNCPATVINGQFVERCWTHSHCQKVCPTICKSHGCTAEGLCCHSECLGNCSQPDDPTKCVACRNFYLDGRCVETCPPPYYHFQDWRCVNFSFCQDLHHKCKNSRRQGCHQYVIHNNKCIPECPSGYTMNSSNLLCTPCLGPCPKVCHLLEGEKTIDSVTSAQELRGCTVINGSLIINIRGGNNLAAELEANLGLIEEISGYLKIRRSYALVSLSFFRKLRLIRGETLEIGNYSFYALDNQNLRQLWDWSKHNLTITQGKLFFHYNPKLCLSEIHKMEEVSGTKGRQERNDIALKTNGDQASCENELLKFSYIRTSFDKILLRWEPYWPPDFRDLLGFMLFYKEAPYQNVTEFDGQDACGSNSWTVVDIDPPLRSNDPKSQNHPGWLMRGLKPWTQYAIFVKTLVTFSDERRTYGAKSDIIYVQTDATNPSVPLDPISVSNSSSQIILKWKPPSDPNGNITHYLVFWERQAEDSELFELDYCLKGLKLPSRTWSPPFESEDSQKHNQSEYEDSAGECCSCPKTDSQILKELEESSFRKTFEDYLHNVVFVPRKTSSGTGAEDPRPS
Sequence of Insulin receptor (P06213 763-1382 limits assumed): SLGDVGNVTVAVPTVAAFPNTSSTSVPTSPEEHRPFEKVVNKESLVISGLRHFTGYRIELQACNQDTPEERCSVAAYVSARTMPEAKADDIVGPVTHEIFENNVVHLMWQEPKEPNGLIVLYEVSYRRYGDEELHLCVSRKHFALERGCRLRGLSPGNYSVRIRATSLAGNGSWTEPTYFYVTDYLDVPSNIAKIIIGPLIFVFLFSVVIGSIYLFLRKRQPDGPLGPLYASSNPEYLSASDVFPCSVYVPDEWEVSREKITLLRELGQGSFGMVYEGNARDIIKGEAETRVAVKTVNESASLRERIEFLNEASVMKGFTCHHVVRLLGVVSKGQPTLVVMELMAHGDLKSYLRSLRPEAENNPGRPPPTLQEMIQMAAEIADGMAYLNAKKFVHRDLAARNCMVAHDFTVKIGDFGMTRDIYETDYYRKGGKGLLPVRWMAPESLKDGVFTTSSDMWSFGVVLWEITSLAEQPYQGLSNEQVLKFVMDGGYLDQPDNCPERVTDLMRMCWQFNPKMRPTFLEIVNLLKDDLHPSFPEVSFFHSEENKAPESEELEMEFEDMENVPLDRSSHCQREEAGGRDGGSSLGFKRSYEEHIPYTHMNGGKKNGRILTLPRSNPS

In the case of `Cc1ccc(-c2ccc3c(ccc4sc5c(c43)NC[C@@H](C)NC5=O)n2)cn1`, the % of inhibition in assay [1] was determined as 19%; in assay [2], 9%.

`C=CC(=O)Nc1cccc(C(=O)Nc2ccc(Nc3cc(-c4[nH]c(SC)nc4C)ccn3)cc2)c1`: the % of control in assay [3] (at 1 µM) came out at 65%; in [3] (at 5 µM), 32%; in assay [4] (at 1 µM) it was 78%; in assay [4] (at 5 µM), 49%.

Turning to `Cc1cc(F)c(C(=O)Nc2cccc(-c3nncn3C(C)C)n2)cc1-n1cnc(C2CC2)c1`, the % of control in [5] amounted to 100%.

As for `C=CC(=O)Nc1cc(-n2c(=O)ccc3cnc4ccc(-c5ccc(NS(C)(=O)=O)cc5)cc4c32)ccc1C`, the % of control in assay [6] (at 1 µM) is 100%; in [6] (at 10 µM), 50%.

Take `CNC(=O)Nc1ccc(-c2nc(N3CC4CCC(C3)O4)c3cnn(C4CCC5(CC4)OCCO5)c3n2)cc1`: in assay [7], the % of control came to 71%.

As to `CC[C@@H]1[C@H](F)C(=O)N[C@@H]1COc1nccc2cc(C(N)=O)c(OC)cc12` [ZIMLOVISERTIB], the % of inhibition in [8] (at 0.01 µM) was -1.5%; in assay [8] (at 0.04 µM), -1.9%; in [8] (at 0.2 µM), -4.2%; in [8] (at 1 µM), 17.9%; in assay [8] (at 5 µM) it was 22.6%.

As to `N#Cc1cccc(-c2c[nH]c3ncnc(N4CCOCC4)c23)c1`, the % of control on Insulin receptor was 100%.
